Legend:
[1] = biological target: C-C chemokine receptor type 5 (Homo sapiens, UniProt P51681); experiment: Antagonist activity at CCR5 (unknown origin) expressed in HEK293 cells co-expressing Galpha16 assessed as inhibition of RANTES-induced calcium flux preincubated for 10 mins followed by RANTES addition by fluo-4AM-based fluorescence assay; format: functional, cell-based
[2] = Cytotoxicity against human TZM-bl cells after 48 hrs by MTT assay; format: cell-based
[3] = system: Human immunodeficiency virus 1; experiment: microbe, parasite or virus in culture; conditions: Human immunodeficiency virus 1, SF162, TZM-bl, 48 h
Description: Antiviral activity against CCR5-dependent HIV1 SF162 infected in human TZM-bl cells assessed as reduction in virus infection measured after 48 hrs post infection by luciferase reporter gene assay

in vitro = conditions: human, TZM-bl cells
Description: Therapeutic index, ratio of CC50 for human TZM-bl cells to EC50 for CCR5-dependent HIV1 SF162 infected in human TZM-bl cells

Sequence of C-C chemokine receptor type 5 (P51681 whole entry): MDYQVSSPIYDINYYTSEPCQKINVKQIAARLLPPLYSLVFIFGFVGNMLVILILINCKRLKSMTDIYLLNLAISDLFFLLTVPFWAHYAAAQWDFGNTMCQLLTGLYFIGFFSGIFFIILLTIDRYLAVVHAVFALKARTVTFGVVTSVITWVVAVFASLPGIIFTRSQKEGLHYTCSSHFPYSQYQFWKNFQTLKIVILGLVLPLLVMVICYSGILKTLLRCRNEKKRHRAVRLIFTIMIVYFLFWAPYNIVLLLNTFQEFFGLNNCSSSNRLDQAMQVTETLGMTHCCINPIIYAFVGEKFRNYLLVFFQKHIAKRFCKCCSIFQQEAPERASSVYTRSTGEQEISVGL

SMILES: Cc1csc([C@H](CCN2[C@@H]3CC[C@H]2C[C@H](n2c(C)nnc2C(C)C)C3)NC(=O)C2CCC(F)(F)CC2)c1
- IC50 [1]: 6.8 nM

SMILES: Cc1nnc(C(C)C)n1[C@@H]1C[C@H]2CC[C@@H](C1)N2CC[C@H](NC(=O)C1CCC(F)CC1)c1cccs1 (some centres undefined)
- IC50 [1]: 3 nM

SMILES: Cc1nnc(C(C)C)n1[C@@H]1C[C@H]2CC[C@@H](C1)N2CC[C@H](NC(=O)C1CC(=O)N(C)C1)c1cccs1 (some centres undefined)
- IC50 [1]: 5.2 nM

SMILES: Cc1nnc(C(C)C)n1[C@@H]1C[C@H]2CC[C@@H](C1)N2CC[C@H](NC(=O)C1CCC(F)(F)CC1)c1csc2ccccc12
- CC50 at 48 h [2]: 96.1 µM
- IC50 [3]: 810 nM
- selectivity ratio (in vitro): 119
- IC50 [1]: 9.7 nM

SMILES: O=C(N[C@@H](CCN1[C@@H]2CC[C@H]1C[C@H](n1c(C3CC3)nnc1C(F)(F)F)C2)c1ccsc1)C1CCC(F)(F)CC1
- IC50 [1]: 2.9 nM

SMILES: CC(C)c1nnc(C(F)(F)F)n1[C@@H]1C[C@H]2CC[C@@H](C1)N2CC[C@H](NC(=O)C1CCC(F)(F)CC1)c1cccs1
- IC50 [1]: 4.7 nM

SMILES: CCc1nnc(C)n1[C@@H]1C[C@H]2CC[C@@H](C1)N2CC[C@H](NC(=O)C1CCC(F)(F)CC1)c1ccsc1
- IC50 [1]: 2.8 nM

SMILES: Cc1nnc(C(C)C)n1[C@@H]1C[C@H]2CC[C@@H](C1)N2CC[C@H](NC(=O)C1CCC(F)(F)CC1)c1cscn1
- IC50 [1]: 27.1 nM

SMILES: Cc1nnc(C(C)C)n1[C@@H]1C[C@H]2CC[C@@H](C1)N2CC[C@H](NC(=O)C1CCC(F)(F)CC1)c1ccc(F)s1
- CC50 at 48 h [2]: > 200 µM
- IC50 [3]: 520 nM
- selectivity ratio (in vitro): > 385
- IC50 [1]: 15.8 nM

SMILES: Cc1cscc1[C@H](CCN1[C@@H]2CC[C@H]1C[C@H](n1c(C)nnc1C(C)C)C2)NC(=O)C1CCC(F)(F)CC1
- IC50 [1]: 8.1 nM

SMILES: Cc1nnc(C(C)C)n1[C@@H]1C[C@H]2CC[C@@H](C1)N2CC[C@H](NC(=O)C(C)(C)C(F)(F)F)c1cccs1
- IC50 [1]: 5.4 nM

SMILES: Cc1nnc(C(C)C)n1[C@@H]1C[C@H]2CC[C@@H](C1)N2CC[C@H](NC(=O)C1CCC(=O)C1)c1cccs1 (some centres undefined)
- IC50 [1]: 2.9 nM

SMILES: Cc1ccc([C@H](CCN2[C@@H]3CC[C@H]2C[C@H](n2c(C)nnc2C(C)C)C3)NC(=O)C2CCCC2)s1
- IC50 [1]: 2.6 nM

— ChEMBL document CHEMBL4229569, “Structure-Based Design of 1-Heteroaryl-1,3-propanediamine Derivatives as a Novel Series of CC-Chemokine Receptor 5 Antagonists” (J Med Chem, 2018)
